# In ChEMBL document CHEMBL5500407, “Designing Chromane Derivatives as α2A-Adrenoceptor Selective Agonists via Conformation Constraint” (J Med Chem, 2024):
# Active and inactive are the calls of the source. No cut-off for these calls is given here.
# Key:
# [1] = target: T1, Alpha-1D adrenergic receptor (Homo sapiens, UniProt P25100); assay: Binding affinity to human alpha1D-adrenoceptor
# T1 sequence (P25100 whole entry): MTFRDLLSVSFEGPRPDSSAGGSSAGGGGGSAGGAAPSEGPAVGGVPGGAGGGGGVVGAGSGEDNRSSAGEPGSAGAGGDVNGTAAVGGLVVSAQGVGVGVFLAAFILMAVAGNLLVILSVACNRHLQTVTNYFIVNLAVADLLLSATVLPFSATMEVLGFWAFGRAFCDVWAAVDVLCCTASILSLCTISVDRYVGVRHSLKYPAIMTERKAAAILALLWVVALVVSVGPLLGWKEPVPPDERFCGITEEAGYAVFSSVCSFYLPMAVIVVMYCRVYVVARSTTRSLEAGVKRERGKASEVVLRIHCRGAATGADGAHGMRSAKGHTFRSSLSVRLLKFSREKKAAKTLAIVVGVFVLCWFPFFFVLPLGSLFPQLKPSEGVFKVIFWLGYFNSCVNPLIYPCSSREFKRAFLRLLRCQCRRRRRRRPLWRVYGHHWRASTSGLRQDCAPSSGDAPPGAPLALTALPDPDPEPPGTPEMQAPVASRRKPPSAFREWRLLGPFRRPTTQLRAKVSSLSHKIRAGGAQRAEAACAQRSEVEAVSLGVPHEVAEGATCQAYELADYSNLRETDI
# [2] = target: T2, Alpha-2C adrenergic receptor (Homo sapiens, UniProt P18825)
# T2 sequence (P18825 whole entry): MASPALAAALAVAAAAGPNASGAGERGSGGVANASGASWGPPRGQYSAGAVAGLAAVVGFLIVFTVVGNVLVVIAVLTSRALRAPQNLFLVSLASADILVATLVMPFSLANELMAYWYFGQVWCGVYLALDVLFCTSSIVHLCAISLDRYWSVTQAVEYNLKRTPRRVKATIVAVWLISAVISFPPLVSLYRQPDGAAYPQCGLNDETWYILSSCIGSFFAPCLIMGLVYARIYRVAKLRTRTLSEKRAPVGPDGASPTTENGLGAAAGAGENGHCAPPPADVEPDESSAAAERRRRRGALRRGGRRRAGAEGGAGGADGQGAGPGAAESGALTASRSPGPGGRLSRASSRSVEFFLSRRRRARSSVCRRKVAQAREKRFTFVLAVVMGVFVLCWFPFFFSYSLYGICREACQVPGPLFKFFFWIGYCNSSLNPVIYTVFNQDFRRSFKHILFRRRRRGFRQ
# Description: Binding affinity to human alpha2C-adrenoceptor
# [3] = target: T3, Alpha-1B adrenergic receptor (Homo sapiens, UniProt P35368); assay: Binding affinity to human alpha1B-adrenoceptor
# T3 sequence (P35368 whole entry): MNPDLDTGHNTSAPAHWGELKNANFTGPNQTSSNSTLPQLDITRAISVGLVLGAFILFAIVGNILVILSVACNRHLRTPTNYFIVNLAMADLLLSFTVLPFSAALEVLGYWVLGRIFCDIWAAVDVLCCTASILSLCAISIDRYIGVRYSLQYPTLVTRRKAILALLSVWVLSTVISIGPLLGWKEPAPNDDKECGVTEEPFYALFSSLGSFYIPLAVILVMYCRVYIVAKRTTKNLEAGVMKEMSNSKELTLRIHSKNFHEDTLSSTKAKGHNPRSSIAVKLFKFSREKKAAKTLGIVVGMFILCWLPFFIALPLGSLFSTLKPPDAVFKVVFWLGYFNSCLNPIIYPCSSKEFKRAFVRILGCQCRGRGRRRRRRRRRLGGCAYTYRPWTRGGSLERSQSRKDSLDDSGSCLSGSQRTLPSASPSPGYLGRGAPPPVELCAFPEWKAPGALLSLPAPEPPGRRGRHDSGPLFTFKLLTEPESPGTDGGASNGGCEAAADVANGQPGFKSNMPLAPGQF
# [4] = target: T4, Alpha-2B adrenergic receptor (Homo sapiens, UniProt P18089)
# T4 sequence (P18089 whole entry): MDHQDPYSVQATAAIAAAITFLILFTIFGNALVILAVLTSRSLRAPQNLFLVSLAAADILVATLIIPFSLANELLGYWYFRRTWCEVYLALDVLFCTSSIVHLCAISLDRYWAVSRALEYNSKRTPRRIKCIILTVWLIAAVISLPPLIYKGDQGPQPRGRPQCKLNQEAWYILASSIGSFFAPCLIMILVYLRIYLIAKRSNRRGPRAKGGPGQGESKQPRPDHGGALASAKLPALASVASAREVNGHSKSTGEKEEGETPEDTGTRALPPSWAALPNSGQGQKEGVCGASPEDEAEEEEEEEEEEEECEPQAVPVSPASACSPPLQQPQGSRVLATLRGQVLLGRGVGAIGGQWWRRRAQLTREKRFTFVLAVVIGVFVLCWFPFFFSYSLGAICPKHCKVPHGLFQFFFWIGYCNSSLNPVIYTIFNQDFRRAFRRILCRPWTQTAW
# Description: Binding affinity to human alpha2B-adrenoceptor
# [5] = target: T5, Alpha-2A adrenergic receptor (Homo sapiens, UniProt P08913)
# T5 sequence (P08913 whole entry): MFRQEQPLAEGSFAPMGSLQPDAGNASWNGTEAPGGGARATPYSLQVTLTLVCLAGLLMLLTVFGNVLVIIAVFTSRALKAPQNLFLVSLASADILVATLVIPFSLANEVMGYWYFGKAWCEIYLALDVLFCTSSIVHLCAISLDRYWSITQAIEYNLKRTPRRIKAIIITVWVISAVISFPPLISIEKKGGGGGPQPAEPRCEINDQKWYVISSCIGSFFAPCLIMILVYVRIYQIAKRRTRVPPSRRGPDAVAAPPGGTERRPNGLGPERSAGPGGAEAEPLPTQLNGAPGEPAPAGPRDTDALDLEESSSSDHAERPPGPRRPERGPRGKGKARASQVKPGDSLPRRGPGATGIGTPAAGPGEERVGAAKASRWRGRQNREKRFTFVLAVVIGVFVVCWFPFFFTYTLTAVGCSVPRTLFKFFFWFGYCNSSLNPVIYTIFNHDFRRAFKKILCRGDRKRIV
# Description: Binding affinity to human alpha2A-adrenoceptor
# [6] = target: T6, Alpha-1A adrenergic receptor (Homo sapiens, UniProt P35348)
# T6 sequence (P35348 whole entry): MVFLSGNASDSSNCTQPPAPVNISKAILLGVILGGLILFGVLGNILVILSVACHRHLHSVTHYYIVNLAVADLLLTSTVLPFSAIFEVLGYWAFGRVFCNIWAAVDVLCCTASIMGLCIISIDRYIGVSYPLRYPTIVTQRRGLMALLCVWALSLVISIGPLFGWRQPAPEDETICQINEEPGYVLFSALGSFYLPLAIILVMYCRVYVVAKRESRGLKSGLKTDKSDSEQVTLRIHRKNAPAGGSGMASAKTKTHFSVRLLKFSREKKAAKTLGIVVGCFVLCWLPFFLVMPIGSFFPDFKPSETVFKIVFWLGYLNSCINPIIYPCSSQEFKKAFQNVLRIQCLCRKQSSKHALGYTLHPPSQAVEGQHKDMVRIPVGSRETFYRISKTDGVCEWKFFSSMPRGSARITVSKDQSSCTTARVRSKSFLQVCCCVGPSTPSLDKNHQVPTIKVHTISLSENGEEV
# Description: Binding affinity to human alpha1A-adrenoceptor
# [7] = test system: Mus musculus; assay: Hypnotic activity in C57BL/6 mouse assessed as increase in loss of righting reflex (LORR) in presence of ARC239 alpha2B-adrenoceptor antagonist at 0.60 mg/kg, ip; type: functional, organism-based; conditions: dose 0.6 mg/kg
# [8] = test system: Mus musculus; assay: Hypnotic activity in C57BL/6 mouse assessed as increase in loss of righting reflex (LORR) in presence of BRL44408 alpha2A-adrenoceptor antagonist at 0.60 mg/kg, ip; type: functional, organism-based; conditions: dose 0.6 mg/kg
# [9] = test system: Mus musculus; assay: Hypnotic activity in C57BL/6 mouse assessed as increase in induction time righting reflex (LORR) in presence of atipamezole alpha2-adrenoceptor antagonist at 0.60 mg/kg, ip; type: functional, organism-based; conditions: dose 0.6 mg/kg
# [10] = test system: HEK293T; assay: Agonist activity at alpha2A-adrenoceptor Y409A mutant (unknown origin) expressed in HEK293T cells co-expressing pGloSensor-22F cAMP plasmid assessed as at 0.000001 to 100 uM measured after 10 mins incubation by multiplate reader; type: cell-based; conditions: Homo sapiens, dose lower 1e-06 µM, dose upper 100.0 µM
# [11] = Metabolic stability in mouse liver microsomes assessed as intrinsic clearance; type: ADME, Microsome; conditions: read-out: CLH
# [12] = target: T6, Alpha-1A adrenergic receptor; assay: Agonist activity at alpha1A-adrenoceptor (unknown origin) expressed in HEK293T cells assessed as fluorescence intensity measured after 30 mins by IP-one homogeneous time-resolved fluorescence assay; type: functional, cell-based
# [13] = target: T2, Alpha-2C adrenergic receptor; assay: Agonist activity at alpha2C-adrenoceptor (unknown origin) expressed in CHO-alpha2C-PKAcatEGFP cells assessed as increase in intracellular calcium level measured after 15 mins incubation by Micro automated microscopy; type: functional, cell-based
# [14] = test system: Mus musculus; assay: Hypnotic activity in ip dosed C57BL/6 mouse assessed as increase in immobility time; type: functional, organism-based
# [15] = Metabolic stability in mouse liver microsomes assessed as elimination half life; type: ADME, Microsome
# [16] = test system: Mus musculus; assay: Hypnotic activity in C57BL/6 mouse assessed as increase in loss of righting reflex (LORR) in presence of JP1302 alpha2C-adrenoceptor antagonist at 0.60 mg/kg, ip; type: functional, organism-based; conditions: dose 0.6 mg/kg
# [17] = test system: Mus musculus; assay: Hypnotic activity in C57BL/6 mouse assessed as increase in loss of righting reflex (LORR) in presence of atipamezole alpha2-adrenoceptor antagonist at 0.60 mg/kg, ip; type: functional, organism-based; conditions: dose 0.6 mg/kg
# [18] = test system: HEK293T; assay: Agonist activity at alpha2A-adrenoceptor D128A mutant (unknown origin) expressed in HEK293T cells co-expressing pGloSensor-22F cAMP plasmid assessed as at 0.000001 to 100 uM measured after 10 mins incubation by multiplate reader; type: cell-based; conditions: Homo sapiens, dose lower 1e-06 µM, dose upper 100.0 µM
# [19] = target: T4, Alpha-2B adrenergic receptor; assay: Agonist activity at alpha2B-adrenoceptor (unknown origin) expressed in U2OS-EGFP-NFAT2-alpha2B-AR cells assessed as increase in intracellular calcium level measured after 15 mins incubation by Micro automated microscopy; type: functional, cell-based
# [20] = test system: HEK293T; assay: Agonist activity at alpha2A-adrenoceptor F427A mutant (unknown origin) expressed in HEK293T cells co-expressing pGloSensor-22F cAMP plasmid assessed as at 1 to 100 uM measured after 10 mins incubation by multiplate reader; type: cell-based; conditions: Homo sapiens, filed as agonist, dose 1-100 µM
# [21] = target: T5, Alpha-2A adrenergic receptor; assay: Agonist activity at human alpha2A adrenoceptor assessed as [35S]GTPgammaS binding by scintillation counting analysis; type: functional
# [22] = target: T5, Alpha-2A adrenergic receptor; remark: listed apart in the source
# Description: Agonist activity at alpha2A-adrenoceptor (unknown origin) expressed in CHO-alpha2-AR-PKAcatEGFP cells assessed as intracellular cAMP concentration by measuring PKA translocation after 15 mins incubation by PKA redistribution assay
# [23] = Selectivity index, ratio of EC50 for alpha2A-adrenoceptor (unknown origin) to EC50 for alpha1A-adrenoceptor (unknown origin)
# [24] = Selectivity index, ratio of EC50 for alpha2A-adrenoceptor (unknown origin) to EC50 for alpha2C-adrenoceptor (unknown origin)
# [25] = Selectivity index, ratio of EC50 for alpha2A-adrenoceptor (unknown origin) to EC50 for alpha2B-adrenoceptor (unknown origin)
SMILES,Ki [1],Ki [3],EC50 [12],EC50 [13],EC50 [19],EC50 [22],Selectivity Index [23],Selectivity Index [24],Selectivity Index [25],other results
NC1=N[C@]2(CCc3cccc(Cl)c3C2)OC1,25.1 nM,20 nM,–,–,–,–,–,–,–,Ki [2]: 0.316 nM; Ki [4]: 0.251 nM; Ki [5]: 0.316 nM; Ki [6]: 3.98 nM
Brc1cccc2c1OCCC2c1c[nH]cn1 (centres undefined),–,–,2.55 nM,21.3 nM,163 nM,–,–,–,–,Activity [7]: Active; Activity [8]: inactive; Activity [9]: inactive; Activity [10]: inactive; microsomal CLint [11]: 29 µL/min/mg; Activity [14]: Dose-Dependent Effect; half-life [15]: 47.8 min; Activity [16]: Active; Activity [17]: inactive; Activity [18]: inactive; Activity [20]: Active
Clc1cccc(Cl)c1N=C1NCCN1 [CLONIDINE],2570 nM,7410 nM,–,–,–,–,–,–,–,–
N=C(N)NC(=O)Cc1c(Cl)cccc1Cl [GUANFACINE],11700 nM,135000 nM,–,–,–,–,–,–,–,Ki [6]: 4680 nM
CC(c1cccc(C2(C(F)(F)F)N=N2)c1)c1c[nH]cn1 (centres undefined),–,–,–,–,–,–,–,–,–,pEC50 [21]: 6.53
Clc1cccc2c1OCCC2c1c[nH]cn1 (centres undefined),–,–,4.05 nM,35.8 nM,24.1 nM,2.36 nM,1.7,15,10,–
Cc1cccc2c1OCCC2c1c[nH]cn1 (centres undefined),–,–,2.42 nM,> 5000 nM,45.8 nM,2.09 nM,1.2,> 2000,22,microsomal CLint [11]: 37.7 µL/min/mg; half-life [15]: 36.8 min
Fc1cc(Br)c2c(c1)C(c1c[nH]cn1)=CCO2,–,–,48.4 nM,27.9 nM,83.4 nM,1.14 nM,42,24,73,–
